Columns and labels:
MstH = molecular target: T1, MstH (Aspergillus niger, UniProt A5ABZ0); assay: competition of […]-glucose uptake in yeast cells; type: cell-based; conditions: read-out: % inhibition at 10 mM
T1 construct: gene An15g03940; also called pRS426H7), expressed in S. cerevisiae EBY.VW4000 hexose transporter null mutant, whole-cell uptake
T1 sequence (A5ABZ0 1-527): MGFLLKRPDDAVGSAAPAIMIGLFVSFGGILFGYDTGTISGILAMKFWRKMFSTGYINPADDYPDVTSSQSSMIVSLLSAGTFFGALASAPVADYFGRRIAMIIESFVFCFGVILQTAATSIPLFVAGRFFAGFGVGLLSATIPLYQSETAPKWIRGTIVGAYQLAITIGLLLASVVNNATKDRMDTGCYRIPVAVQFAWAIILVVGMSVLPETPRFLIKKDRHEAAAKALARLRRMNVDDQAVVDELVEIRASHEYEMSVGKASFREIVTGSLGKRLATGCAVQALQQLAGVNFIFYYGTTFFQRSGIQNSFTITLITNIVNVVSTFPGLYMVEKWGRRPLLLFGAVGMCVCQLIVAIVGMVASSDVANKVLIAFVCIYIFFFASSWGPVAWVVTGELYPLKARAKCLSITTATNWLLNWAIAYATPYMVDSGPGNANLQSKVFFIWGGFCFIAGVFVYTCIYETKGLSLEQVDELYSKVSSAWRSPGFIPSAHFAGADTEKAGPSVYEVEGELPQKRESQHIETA

MstG = molecular target: T2, MstG (Aspergillus niger, UniProt A2QKT1); assay: competition of […]-glucose uptake in yeast cells; type: cell-based; conditions: read-out: % inhibition at 10 mM
T2 construct: gene An05g01290; also called pRS426H7), expressed in S. cerevisiae EBY.VW4000 hexose transporter null mutant, whole-cell uptake
T2 sequence (A2QKT1 1-542): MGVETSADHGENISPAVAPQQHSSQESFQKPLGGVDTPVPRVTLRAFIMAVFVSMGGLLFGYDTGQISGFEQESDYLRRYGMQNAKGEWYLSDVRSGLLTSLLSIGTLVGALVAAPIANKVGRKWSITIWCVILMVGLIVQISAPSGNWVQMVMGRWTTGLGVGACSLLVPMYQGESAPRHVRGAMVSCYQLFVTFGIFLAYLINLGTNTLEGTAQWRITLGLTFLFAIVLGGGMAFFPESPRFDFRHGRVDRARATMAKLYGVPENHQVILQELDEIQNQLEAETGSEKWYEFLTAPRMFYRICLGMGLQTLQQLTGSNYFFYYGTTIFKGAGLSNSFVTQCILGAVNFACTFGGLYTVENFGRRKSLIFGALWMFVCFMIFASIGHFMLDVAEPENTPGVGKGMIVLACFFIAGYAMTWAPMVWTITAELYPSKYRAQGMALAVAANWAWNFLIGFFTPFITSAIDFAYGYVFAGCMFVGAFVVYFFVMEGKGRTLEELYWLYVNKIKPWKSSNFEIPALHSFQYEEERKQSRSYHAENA

## OCC1(O)OC[C@@H](O)[C@@H](O)[C@@H]1O (some centres unmarked) [fructose]
MstH
  inhibition at 10000 µM: 50%
MstG
  inhibition at 10000 µM: 29%

## OC[C@H]1OC(O)[C@H](O)[C@@H](O)[C@H]1O (some centres unmarked) [galactose]
MstG
  inhibition at 10000 µM: 39%

## OC[C@H]1OC(O)[C@@H](O)[C@@H](O)[C@@H]1O (some centres unmarked) [mannose]
MstH
  inhibition at 10000 µM: 70%

## OC1OC[C@@H](O)[C@H](O)[C@H]1O (some centres unmarked) [xylose]
MstG
  inhibition at 10000 µM: 25%

— PMC4574540, “Aspergillus niger membrane-associated proteome analysis for the identification of glucose transporters” (Biotechnology for Biofuels, 2015)
